Here are results for five compounds from paper PMC9673917 (ACS Infectious Diseases, 2022).

For series [1], the system named is ACE2/RBD. Conditions: read-out: IC50 as ACE2/RBD binding inhibitor, AlphaLISA; ref 16 (Hanson et al.); cited from earlier work. (In general: Bead proximity is the source of the signal in Alpha formats.)
Series [2] deals with RBD-Fc/ACE2-Strep (Severe acute respiratory syndrome coronavirus 2, UniProt P0DTC2). As to the kind of experiment: biochemical. Format: binding, SARS-CoV-2 S protein; human ACE2.
In series [3] the test system is Calu-3 and HEK293-ACE2 cells. As to conditions: Calu-3 and HEK293-ACE2 cell lines.
The test system of series [4] is ACE2/RBD interaction. As to conditions: up to 100 μM; cell-free ELISA-type assays; RBD residues 319–541; ref 14 (Bojadzic et al.); cited from earlier work. (In general: In an ELISA, binding on a coated surface is turned into a signal by an enzyme label.)
Series [5] relates to ACE2/RBD interaction. Conditions: 150 μM; RBD residues 319–541; ref 11 (Ao et al.); cited from earlier work.
Series [6] concerns spike protein. Conditions: Calu-3 cell line; cited from earlier work.

Regarding `O=C(O[C@@H]1O[C@@H]2COC(=O)c3cc(O)c(O)c(O)c3-c3c(cc(O)c(O)c3O)C(=O)O[C@H]([C@H]1O)[C@@H]2O)c1cc(O)c(O)c(O)c1` [corilagin], in series [1], the IC50 was 5.5 µM.

For the compound `CCCCCCCC/C=C\CCCCCCCC(=O)O` [oleic acid], the IC50 in series [2] is 35.3 µM. In series [3], the “cytotoxicity over active concentration ranges” value was “low to moderate cytotoxicity”.

`Cc1ccc(C(=O)Nc2ccc(S(=O)(=O)O)c3cc(S(=O)(=O)O)cc(S(=O)(=O)O)c23)cc1NC(=O)c1cccc(NC(=O)Nc2cccc(C(=O)Nc3cc(C(=O)Nc4ccc(S(=O)(=O)O)c5cc(S(=O)(=O)O)cc(S(=O)(=O)O)c45)ccc3C)c2)c1` [suramin]: the “inhibition of the ACE2/RBD interaction” value in series [4] is reported as “did not inhibit”. For the same compound, in series [5], the “inhibition of ACE2/RBD interaction” value is given as “around 50%”. For the same compound, the “cytotoxicity over active concentration ranges” value in series [3] is listed as “low to moderate cytotoxicity”.

On to “REGN10933: monoclonal antibody that targets the spike protein”, for which, in series [6], the neutralization efficacy result is reported as “potent neutralization efficacy”.

On to “REGN10987: monoclonal antibody that targets the spike protein”, for which the neutralization efficacy result in series [6] is listed as “potent neutralization efficacy”.
